Legend:
hM4 receptors = biological target: T1, hM4 receptors (Homo sapiens, UniProt P08173); assay: Human M4 PAM pERK assay; type: cell-based; conditions: CHO cells expressing hM4; EC20 of acetylcholine (10 nM final); TR-FRET
T1 construct: expressed in transfected cells; host or cells: CHO cells
T1 sequence (P08173 1-479): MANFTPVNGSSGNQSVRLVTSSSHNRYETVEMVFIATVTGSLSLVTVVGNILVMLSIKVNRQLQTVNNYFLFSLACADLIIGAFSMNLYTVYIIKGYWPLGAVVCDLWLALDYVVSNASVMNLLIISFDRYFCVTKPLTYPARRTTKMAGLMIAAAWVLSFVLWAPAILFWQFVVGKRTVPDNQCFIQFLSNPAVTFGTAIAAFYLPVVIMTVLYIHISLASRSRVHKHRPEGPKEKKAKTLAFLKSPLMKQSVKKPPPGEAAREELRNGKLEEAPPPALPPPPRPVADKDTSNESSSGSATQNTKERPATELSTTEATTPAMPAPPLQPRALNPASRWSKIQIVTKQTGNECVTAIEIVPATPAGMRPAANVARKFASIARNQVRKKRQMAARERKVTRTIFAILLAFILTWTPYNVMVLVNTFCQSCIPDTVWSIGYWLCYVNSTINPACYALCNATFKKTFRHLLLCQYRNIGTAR
Protocol: (§1) Chinese hamster ovary (CHO) cells expressing either hM4 or rM4 receptors were frozen in assay ready vials (5×10^6 cells/vial) after bulking-up in culture. The day before an assay, vial(s) were thawed and cells seeded in 384 well white proxiplates at 1000/well for hM4 cells and at 2000/well for rM4 cells, in 10 μL of growth media (Hams/F12 with glutamax and 10% FCS) and incubated overnight at 37° C./5% CO2.
(§2) On the following morning, the growth media was removed by ‘flicking out’ over a bin, patting the inverted plate onto tissue, and then replacing with 10 μL of wash media (Hams/F12 with glutamax and 8 mM HEPES, NB: serum free). Then, the wash media was removed in the same way and replaced with 8 μL/well of the serum free media. Plates were then re-incubated for a further 4 hours at 37° C./5% CO2.
(§3) Compounds for testing were solubilized to 10 mM in DMSO and compound addition plates, consisting of ten-point concentration response curves (CRC) in duplicate points (10 μM top concentration, 1/2 log dilution series), were prepared by acoustic dispensing and the compound management group.
(§4) After the 4-hour incubation in serum free media, a 4 μL aliquot of the 3× compound solution containing an EC20 of acetylcholine (10 nM final concentration) was added to the cell plate using a 384 well plate to plate transfer. Then, the plate lid was replaced, and the cells incubated for 5 mins at 37° C./5% CO2. Following this final incubation, all cellular processes were stopped by the addition of 4 μL/well of lysis and blocking buffer and plates were incubated for 30 minutes at RT on an orbital shaker (gentle setting). Then, a final addition of 4 μL/well of antibody detection mix, containing both the Europium-Cryptate (donor) and d2 (acceptor) tagged detection components, was added followed by a further 2-hour incubation at RT, and then the plate was read using a TR-FRET (time resolved fluorescence resonance energy transfer) based protocol.

human M4 receptor = biological target: T2, human M4 receptor (Homo sapiens, UniProt P08173); assay: M4 GTPγS PAM assay; type: biochemical; conditions: membranes of CHO-K1 cells stably expressing human M4; EC20 acetylcholine 40 nM; 35S-GTP
T2 construct: expressed in transfected cells
T2 sequence (P08173 1-479): T1 sequence (P08173 1-479)
Protocol: The M4 GTPγS PAM method was used. Membranes were prepared for GTPgS binding assays from CHO-K1 cells stably expressing human M4 receptor. Briefly, cells were grown in 5-layer cell culture flasks. Cells were washed with 50 mL of PBS and then dissociated with 0.05% trypsin. Dissociated cells were then collected by centrifugation at 650×g for 8 minutes at 4° C. Pellets were washed again in PBS by centrifugation and resuspended in 30 mL of 20 mM HEPES, 10 mM EDTA, pH 7.4. After sitting on ice for 30 min, membranes were collected by centrifugation at 50000×g for 15′ at 4° C., resuspended in 30 mL of 20 mM HEPES, 0.1 mM EDTA, pH 7.4 and collected again by centrifugation. Pellets were then washed twice by centrifugation in 30 mL of 20 mM HEPES, pH 7.4, and stored at −80° C. until the day of the assay. On the day of the assay, pellets were thawed on ice and resuspended in 1 mL of 20 mM HEPES, pH 7.4, 10 mM MgCl2, 100 mM NaCl using dounce homogenization. Membrane protein concentration is determined by BCA protein assay (Promega, Madison, WI) according to Promega guidelines.
On the day of the assay, serial dilutions of test PAM compounds were brought up in assay buffer (20 mM HEPES, 10 mM MgCl2, 100 mM NaCl) at 4× final assay concentration. […] of membrane homogenates (containing […] of membrane protein) were prepared in assay buffer supplemented with GDP at 4× final assay concentration (final assay concentration of GDP is 5 μM for M2 and 0.1 μM for M4) and dispensed into 96 well polypropylene, U-bottom Greiner plates. […] of vehicle or test PAM compound at 4× of final assay concentration diluted in the assay buffer were added to membrane and plates are incubated for 10-15 minutes at room temperature with gentle shaking. Then, […] of EC20 acetylcholine in assay buffer at 4× final assay concentration was added to assay plates (EC20 final assay concentrations was 40 nM for human M4).
Plates were then incubated, with shaking, for an additional 10-15 minutes. […] of 0.4 nM 35S-GTP (Perkin Elmer, Waltham, MA) in assay buffer was added to assay mixtures. The binding reaction is left on the shaker for 1 hour at room temperature. Membranes in assay reactions were then transferred to GF/C filter plates (Unifilter, Perkin Elmer) and washed three times using a FilterMate Harvester (Perkin Elmer) with cold assay buffer containing no GDP. Filter plates were then dried at 40° C. overnight followed by the addition of […] of Beta Plate Scintillation liquid. Plates are top and bottom sealed before being read on TopCount scintillation counter (Perkin Elmer, Waltham, MA).

rM4 receptors = biological target: T3, rM4 receptors (Rattus norvegicus, UniProt P08485); assay: Rat M4 PAM pERK assay; type: cell-based; conditions: CHO cells expressing rM4; EC20 of acetylcholine (10 nM final); TR-FRET
T3 construct: expressed in transfected cells; host or cells: CHO cells
T3 sequence (P08485 1-478): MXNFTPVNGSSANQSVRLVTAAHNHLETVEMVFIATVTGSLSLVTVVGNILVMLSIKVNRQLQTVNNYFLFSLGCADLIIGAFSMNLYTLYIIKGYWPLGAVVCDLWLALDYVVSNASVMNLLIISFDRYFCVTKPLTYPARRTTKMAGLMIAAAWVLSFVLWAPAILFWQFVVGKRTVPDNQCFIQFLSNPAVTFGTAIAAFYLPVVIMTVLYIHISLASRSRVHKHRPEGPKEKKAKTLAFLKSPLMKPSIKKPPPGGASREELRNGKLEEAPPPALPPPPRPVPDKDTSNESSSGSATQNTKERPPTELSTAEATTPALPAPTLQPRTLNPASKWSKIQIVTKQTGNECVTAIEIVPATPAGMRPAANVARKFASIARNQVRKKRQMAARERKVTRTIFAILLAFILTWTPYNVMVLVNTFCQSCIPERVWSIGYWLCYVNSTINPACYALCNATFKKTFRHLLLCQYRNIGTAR
Protocol: as §1, §2, §3, §4

SMILES | EC50 (hM4 receptors) | EC50 (human M4 receptor) | EC50 (rM4 receptors)
COc1nc(C)nc2c1C(C)N(C(=O)CC1CN(c3ccnc(C(F)(F)F)c3)C1)C2 (racemic) [Compound I-51, 1-(4-Methoxy-2,5-dimethyl-5,7-dihydro-6H-pyrrolo[3,4-d]pyrimidin-6-yl)-2-(1-(2-(trifluoromethyl)pyridin-4-yl)azetidin-3-yl)ethan-1-one] | 100 to 500 nM | 100 to 500 nM | 500 to 2000 nM
COc1nc2c(c(OC)n1)C(C)N(C(=O)CC1CN(c3ccnc(C(F)(F)F)c3)C1)C2 (racemic) [Compound I-67, 1-(2,4-Dimethoxy-5-methyl-5,7-dihydro-6H-pyrrolo[3,4-d]pyrimidin-6-yl)-2-(1-(2-(trifluoromethyl)pyridin-4-yl)azetidin-3-yl)ethan-1-one] | 100 to 500 nM | ≤ 100 nM | 500 to 2000 nM
COc1nc(C#N)nc2c1C(C)N(C(=O)CC1CN(c3ncns3)C1)C2 (single isomer, unassigned) [Compound I-4, 6-(2-(1-(1,2,4-Thiadiazol-5-yl)azetidin-3-yl)acetyl)-4-methoxy-5-methyl-6,7-dihydro-5H-pyrrolo[3,4-d]pyrimidine-2-carbonitrile] | ≥ 2000 nM | ≥ 2000 nM | ≥ 2000 nM
COc1nc(C#N)nc2c1C(C)N(C(=O)CC1CN(c3ccnc(C(F)(F)F)c3)C1)C2 (single isomer, unassigned) [Compound I-5, 4-Methoxy-5-methyl-6-(2-(1-(2-(trifluoromethyl)pyridin-4-yl)azetidin-3-yl)acetyl)-6,7-dihydro-5H-pyrrolo[3,4-d]pyrimidine-2-carbonitrile] | ≥ 2000 nM | ≥ 2000 nM | ≥ 2000 nM
COc1nc(C#N)nc2c1C(C)N(C(=O)CC1CN(c3cccnc3)C1)C2 (single isomer, unassigned) [Compound I-7, 4-Methoxy-5-methyl-6-(2-(1-(pyridin-3-yl)azetidin-3-yl)acetyl)-6,7-dihydro-5H-pyrrolo[3,4-d]pyrimidine-2-carbonitrile] | ≥ 2000 nM | ≥ 2000 nM | ≥ 2000 nM
COc1nc(C#N)nc2c1C(C)N(C(=O)CC1CN(c3cccnc3)C1)C2 (single isomer, unassigned) [Compound I-8, 4-Methoxy-5-methyl-6-(2-(1-(pyridin-3-yl)azetidin-3-yl)acetyl)-6,7-dihydro-5H-pyrrolo[3,4-d]pyrimidine-2-carbonitrile] | ≤ 100 nM | 500 to 2000 nM | 100 to 500 nM
COc1nc(C#N)nc2c1C(C)N(C(=O)CC1CN(c3ccnc(C4CC4)c3)C1)C2 (single isomer, unassigned) [Compound I-11, 6-(2-(1-(2-Cyclopropylpyridin-4-yl)azetidin-3-yl)acetyl)-4-methoxy-5-methyl-6,7-dihydro-5H-pyrrolo[3,4-d]pyrimidine-2-carbonitrile] | ≥ 2000 nM | ≥ 2000 nM | ≥ 2000 nM
COc1nc(C)nc2c1CN(C(=O)CC1(F)CN(c3ccnc(C(F)(F)F)c3)C1)C2 [Compound I-42, 2-(3-Fluoro-1-(2-(trifluoromethyl)pyridin-4-yl)azetidin-3-yl)-1-(4-methoxy-2-methyl-5,7-dihydro-6H-pyrrolo[3,4-d]pyrimidin-6-yl)ethan-1-one] | ≥ 2000 nM | ≥ 2000 nM | 
Cc1nc2c(c(OC3CC3)n1)CN(C(=O)CC1CN(c3ccnc(C(F)(F)F)c3)C1)C2 [Compound I-49, 1-(4-Cyclopropoxy-2-methyl-5,7-dihydro-6H-pyrrolo[3,4-d]pyrimidin-6-yl)-2-(1-(2-(trifluoromethyl)pyridin-4-yl)azetidin-3-yl)ethan-1-one] | ≥ 2000 nM | ≥ 2000 nM | 
CNc1nc(C)nc2c1CN(C(=O)CC1CN(c3cccnc3)C1)C2 [Compound I-72, 1-(2-Methyl-4-(methylamino)-5,7-dihydro-6H-pyrrolo[3,4-d]pyrimidin-6-yl)-2-(1-(pyridin-3-yl)azetidin-3-yl)ethan-1-one] | 500 to 2000 nM |  | ≥ 2000 nM
Cc1nc2c(c(NC3CC3)n1)CN(C(=O)CC1CN(c3cccnc3)C1)C2 [Compound I-73, 1-(4-(Cyclopropylamino)-2-methyl-5,7-dihydro-6H-pyrrolo[3,4-d]pyrimidin-6-yl)-2-(1-(pyridin-3-yl)azetidin-3-yl)ethan-1-one] | 500 to 2000 nM |  | ≥ 2000 nM
COc1nc(C2COC2)nc2c1CN(C(=O)CC1CN(c3ccnc(C(F)(F)F)c3)C1)C2 [Compound I-77, 1-(4-Methoxy-2-(oxetan-3-yl)-5,7-dihydro-6H-pyrrolo[3,4-d]pyrimidin-6-yl)-2-(1-(2-(trifluoromethyl)pyridin-4-yl)azetidin-3-yl)ethan-1-one] | ≥ 2000 nM |  | ≥ 2000 nM
COc1nc(C(F)(F)F)nc2c1CN(C(=O)CC1CN(c3cccnc3)C1)C2 [Compound I-78, 1-(4-Methoxy-2-(trifluoromethyl)-5,7-dihydro-6H-pyrrolo[3,4-d]pyrimidin-6-yl)-2-(1-(pyridin-3-yl)azetidin-3-yl)ethan-1-one] | 100 to 500 nM |  | 500 to 2000 nM
COc1nc(OC(F)F)nc2c1CN(C(=O)CC1CN(c3cccnc3)C1)C2 [Compound I-80, 1-(2-(Difluoromethoxy)-4-methoxy-5,7-dihydro-6H-pyrrolo[3,4-d]pyrimidin-6-yl)-2-(1-(pyridin-3-yl)azetidin-3-yl)ethan-1-one] | 500 to 2000 nM |  | ≥ 2000 nM
